Each compound was assayed on K562 (assay: Cytotoxicity against Homo sapiens (human) K562 cells after 24 hr by MTT assay). Details: K562, 24 h.
Format: functional, cell-based
Work on `C[C@H](NC(=O)Cc1ccccc1)c1n[nH]c(=S)o1` yielded an IC50 of 1020 µM. Compound `C[C@H](NC(=O)c1cccnc1)c1n[nH]c(=S)o1` has an IC50 of 739 µM. `C[C@H](NC(=O)c1ccccc1)c1n[nH]c(=S)o1` was tested, and the IC50 was 377 µM. Work on `CC(C)[C@H](NC(=O)c1ccccc1)c1n[nH]c(=S)o1` yielded an IC50 of 245 µM. Compound `CC(C)[C@H](NC(=O)c1ccccc1)c1n[nH]c(=S)n1N` has an IC50 of 154 µM. `C[C@H](NC(=O)c1ccccc1)c1n[nH]c(=S)n1N` was tested, and the IC50 was 372 µM. Compound `COc1ccc(/C=C/C(=O)N[C@H](C)c2n[nH]c(=S)o2)cc1` has an IC50 of 330 µM. In the case of `C[C@H](NC(=O)c1ccc(Cl)cc1)c1n[nH]c(=S)n1N`, the IC50 is reported as 98.6 µM. `CC(C)[C@H](NC(=O)c1ccc([N+](=O)[O-])cc1)c1n[nH]c(=S)o1` gave an IC50 of 43.6 µM. `O=C(/C=C/c1ccccc1)N[C@H](CO)c1n[nH]c(=S)o1` gave an IC50 of 435 µM. In the case of `NC(=O)NO` [HYDROXYUREA], the IC50 is reported as 688 µM. In the case of `C[C@H](NC(=O)c1ccc(Cl)cc1)c1n[nH]c(=S)o1`, the IC50 is reported as 31.1 µM.
